The record followed here is ChEMBL document CHEMBL6103572, “Design, synthesis and structure-activity relationship of novel 1,2,4-triazolopyrimidin-5-one derivatives targeting GABAA1 and Nav1.2 with antiepileptic activity” (Eur J Med Chem, 2025).

A value given as a limit tells only on which side of the number the result lay.

For data set [1], the system named is Mus musculus. As to the kind of experiment: Anticonvulsant activity in MES-induced seizure Kunming mouse model assessed as protection against tonic hind limb extension at 30 mg/kg, ip measured after 30 min. It counts as functional, organism-based.
Data set [2] concerns Mus musculus. Nature of the data set: Antiepileptic activity in PTZ induced Kunming mouse model assessed as protection of seizure at 30 mg/kg, ip incubated for 30 min prior to PTZ stimulation relative to control. The settings on record: 0.5 h. It counts as functional.
The subject of data set [3] is Mus musculus. Nature of the data set: Anticonvulsant activity in ip dosed sc-PTZ induced Kunming mouse model assessed as effective dose measured after 0.5 hrs […]. Format: functional.
A short description of data set [4]: Neurotoxicity in ip dosed sc-PTZ induced Kunming mouse measured after 0.5 hrs by rotarod test. Format: toxicity, organism-based. The note with it: in vivo.
Data set [5] is described as follows: Protection index, ratio of TD50 for neurotoxicity in ip dosed scPTZ induced Kunming mouse to ED50 for anticonvulsant activity in ip dosed scPTZ induced Kunming mouse. It counts as toxicity, organism-based. The note with it: in vivo, read-out: Ratio TD50/ED50.
Data set [6] addresses GABA-A receptor; alpha-1/beta-2/gamma-2 (Homo sapiens) (UniProt P14867+P47870+P18507). Nature of the data set: Potentiation of recombinant human alpha1/beta2/gamma2 GABA receptor expressed in T-REX-CHO cells assessed as fold increase in current amplitude by measuring maximum efficacy by whole-cell patch clamp assay. It counts as cell-based. The settings on record: filed as activator, time 24-48 hrs.

The target in data set [7] is Sodium channel protein type 2 subunit alpha (Homo sapiens, UniProt Q99250). Nature of the data set: Inhibition of Nav 1.2 (unknown origin) expressed in HEK293 cells at -20 mV to -120 mV holding potential under inactivation state by whole-cell patch clamp analysis. It counts as cell-based.
Sequence of Sodium channel protein type 2 subunit alpha (Q99250 whole entry): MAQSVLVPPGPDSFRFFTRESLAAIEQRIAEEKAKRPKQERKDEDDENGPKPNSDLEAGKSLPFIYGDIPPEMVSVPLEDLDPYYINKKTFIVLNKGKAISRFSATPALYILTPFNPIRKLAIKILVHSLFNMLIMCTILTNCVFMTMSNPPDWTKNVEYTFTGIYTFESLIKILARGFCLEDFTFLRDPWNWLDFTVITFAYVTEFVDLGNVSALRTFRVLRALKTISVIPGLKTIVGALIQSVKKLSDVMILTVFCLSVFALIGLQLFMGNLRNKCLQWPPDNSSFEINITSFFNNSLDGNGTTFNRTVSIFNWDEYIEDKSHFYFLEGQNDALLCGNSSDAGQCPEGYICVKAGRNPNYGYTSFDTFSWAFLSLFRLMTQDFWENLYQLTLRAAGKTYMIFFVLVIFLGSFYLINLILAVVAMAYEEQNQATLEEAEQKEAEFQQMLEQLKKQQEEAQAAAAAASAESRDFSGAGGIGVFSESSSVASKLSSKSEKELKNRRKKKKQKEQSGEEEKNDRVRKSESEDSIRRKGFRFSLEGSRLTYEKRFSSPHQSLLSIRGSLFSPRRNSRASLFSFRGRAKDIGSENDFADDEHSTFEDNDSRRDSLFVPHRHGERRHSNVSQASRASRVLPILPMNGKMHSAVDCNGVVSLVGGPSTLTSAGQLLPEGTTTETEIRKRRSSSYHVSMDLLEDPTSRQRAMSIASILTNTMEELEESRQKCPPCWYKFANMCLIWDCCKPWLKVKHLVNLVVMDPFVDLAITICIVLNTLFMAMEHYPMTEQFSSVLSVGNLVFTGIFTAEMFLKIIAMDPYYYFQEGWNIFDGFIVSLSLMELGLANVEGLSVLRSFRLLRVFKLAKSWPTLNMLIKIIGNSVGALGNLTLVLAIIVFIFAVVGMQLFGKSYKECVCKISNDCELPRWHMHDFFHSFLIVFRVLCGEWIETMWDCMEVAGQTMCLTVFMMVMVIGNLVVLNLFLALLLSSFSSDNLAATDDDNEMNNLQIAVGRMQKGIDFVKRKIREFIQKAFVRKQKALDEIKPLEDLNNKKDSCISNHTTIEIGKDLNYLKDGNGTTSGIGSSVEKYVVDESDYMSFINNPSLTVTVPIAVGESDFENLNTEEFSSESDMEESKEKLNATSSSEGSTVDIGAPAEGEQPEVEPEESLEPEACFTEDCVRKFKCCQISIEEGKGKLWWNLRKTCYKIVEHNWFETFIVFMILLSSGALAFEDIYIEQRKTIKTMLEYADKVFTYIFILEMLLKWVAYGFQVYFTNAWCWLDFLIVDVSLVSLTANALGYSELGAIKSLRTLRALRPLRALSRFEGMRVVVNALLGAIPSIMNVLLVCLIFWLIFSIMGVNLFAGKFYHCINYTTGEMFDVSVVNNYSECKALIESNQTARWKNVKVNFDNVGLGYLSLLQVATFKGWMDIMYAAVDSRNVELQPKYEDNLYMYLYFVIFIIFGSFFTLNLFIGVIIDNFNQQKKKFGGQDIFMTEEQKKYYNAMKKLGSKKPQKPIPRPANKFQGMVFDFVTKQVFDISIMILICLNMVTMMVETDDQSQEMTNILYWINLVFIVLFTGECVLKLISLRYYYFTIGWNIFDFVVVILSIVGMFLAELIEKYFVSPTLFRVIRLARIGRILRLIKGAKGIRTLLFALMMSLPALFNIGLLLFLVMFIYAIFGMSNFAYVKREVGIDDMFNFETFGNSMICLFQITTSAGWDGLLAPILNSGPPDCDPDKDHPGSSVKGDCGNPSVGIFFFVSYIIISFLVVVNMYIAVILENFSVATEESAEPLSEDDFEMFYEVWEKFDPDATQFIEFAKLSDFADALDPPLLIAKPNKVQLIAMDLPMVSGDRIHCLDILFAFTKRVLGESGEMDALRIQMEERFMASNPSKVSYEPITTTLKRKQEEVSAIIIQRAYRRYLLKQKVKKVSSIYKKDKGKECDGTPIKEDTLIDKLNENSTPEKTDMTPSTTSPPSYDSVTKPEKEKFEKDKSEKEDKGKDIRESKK
A short description of data set [8]: Drug concentration in male Sprague-Dawley rat plasma at 30 mg/kg, IG administered once measured after 0.25 to 8 hrs by HPLC analysis. Format: ADME, organism-based. The note with it: in vivo, po, time 0.25-8 hrs.
A short description of data set [9]: Drug concentration in male Sprague-Dawley rat brain at 30 mg/kg, IG administered once measured after 0.25 to 8 hrs by HPLC analysis. It counts as ADME, organism-based. The settings on record: in vivo, po, time 0.25-8 hrs.
The target in data set [10] is T1, GABA-A receptor; alpha-1/beta-2/gamma-2 (Homo sapiens, UniProt P14867+P18507+P47870).
T1 sequence (P14867 whole entry): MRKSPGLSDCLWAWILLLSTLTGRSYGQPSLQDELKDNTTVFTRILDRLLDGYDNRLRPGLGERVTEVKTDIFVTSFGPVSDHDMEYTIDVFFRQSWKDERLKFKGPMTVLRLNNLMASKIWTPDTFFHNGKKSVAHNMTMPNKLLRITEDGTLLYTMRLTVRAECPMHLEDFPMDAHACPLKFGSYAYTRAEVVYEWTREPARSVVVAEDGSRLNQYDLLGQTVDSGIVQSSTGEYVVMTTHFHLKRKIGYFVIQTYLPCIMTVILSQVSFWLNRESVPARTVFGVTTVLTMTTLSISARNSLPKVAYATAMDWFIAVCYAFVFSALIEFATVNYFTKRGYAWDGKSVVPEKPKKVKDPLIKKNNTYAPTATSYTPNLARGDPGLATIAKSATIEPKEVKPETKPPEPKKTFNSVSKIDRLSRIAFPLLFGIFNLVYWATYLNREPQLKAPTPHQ
T1 sequence (P47870 whole entry): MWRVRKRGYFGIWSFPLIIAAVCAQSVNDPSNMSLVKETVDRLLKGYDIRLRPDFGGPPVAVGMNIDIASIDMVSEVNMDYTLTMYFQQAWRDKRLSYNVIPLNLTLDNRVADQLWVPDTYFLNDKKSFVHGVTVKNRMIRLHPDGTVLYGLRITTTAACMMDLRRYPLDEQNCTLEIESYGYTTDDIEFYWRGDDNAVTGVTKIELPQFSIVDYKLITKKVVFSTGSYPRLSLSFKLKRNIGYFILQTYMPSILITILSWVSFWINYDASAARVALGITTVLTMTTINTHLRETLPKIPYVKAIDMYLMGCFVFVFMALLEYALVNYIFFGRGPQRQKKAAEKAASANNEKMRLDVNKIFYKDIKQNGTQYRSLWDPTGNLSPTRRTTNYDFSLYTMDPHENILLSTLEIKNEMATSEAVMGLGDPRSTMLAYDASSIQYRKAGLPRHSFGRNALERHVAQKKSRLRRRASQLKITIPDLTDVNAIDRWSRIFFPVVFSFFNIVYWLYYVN
T1 sequence (P18507 whole entry): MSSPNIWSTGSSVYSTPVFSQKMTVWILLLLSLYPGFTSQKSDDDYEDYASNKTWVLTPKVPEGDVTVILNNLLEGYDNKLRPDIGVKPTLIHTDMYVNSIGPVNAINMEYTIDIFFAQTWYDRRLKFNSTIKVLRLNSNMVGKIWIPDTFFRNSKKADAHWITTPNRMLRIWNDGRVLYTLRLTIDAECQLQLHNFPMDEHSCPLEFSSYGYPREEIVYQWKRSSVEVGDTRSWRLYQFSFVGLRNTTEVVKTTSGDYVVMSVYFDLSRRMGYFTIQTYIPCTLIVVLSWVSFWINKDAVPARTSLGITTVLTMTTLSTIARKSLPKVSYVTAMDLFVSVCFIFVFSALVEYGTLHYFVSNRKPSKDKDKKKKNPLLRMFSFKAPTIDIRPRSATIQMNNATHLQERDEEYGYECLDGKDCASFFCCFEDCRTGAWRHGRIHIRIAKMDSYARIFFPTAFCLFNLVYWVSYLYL
Nature of the data set: Potentiation of recombinant human alpha1/beta2/gamma2 GABA receptor expressed in T-REX-CHO cells assessed as increase in current amplitude by whole-cell patch clamp assay. It counts as cell-based.

Data set [11] addresses GABA-A receptor; anion channel (Rattus norvegicus) (UniProt O09028+P15431+P18506+P18508+P19969+P20236+P23574+P23576+P28471+P28473+P30191+P62813+P63079+P63138+Q91ZM7+Q9ES14). As to the kind of experiment: Potentiation of GABAA receptor in Sprague-Dawley rat hippocampal neurons assessed as increase in current amplitude by whole-cell voltage-clamp assay. It counts as cell-based. The note with it: Hippocampal neuron, filed as activator, dose 0.1-10 µM.

`O=C1CC(c2ccccc2F)n2nc(-c3ccccc3F)nc2N1` (configuration not stated): the Activity result in the data set with Mus musculus [1] is “Active; Moderate Protection”; in the data set on Mus musculus [2] it was 100%. For the same molecule, the ED50 in the data set with Mus musculus [3] worked out at 23.7 mg/kg. Moreover, the TD50 at 0.5 h in data set [4] was over 267 mg/kg. Further, the selectivity ratio in data set [5] is over 11.3. For the same molecule, in data set [6], the fold change (FC) amounted to 1.14. Also, the IC50 in data set [7] is 19.9 µM. Also, the Cp in data set [8] was 866.91 ng/mL. For the same molecule, the Ct in data set [9] was 458.72 ng/mL.

In the case of `NC(=O)N1c2ccccc2C=Cc2ccccc21` [CARBAMAZEPINE], the ED50 in the data set on Mus musculus [3] is over 100 mg/kg.

Take `CCCCN1C(=O)CC(c2ccccc2)n2nc(-c3ccc(C)cc3)nc21` (configuration not stated): the Activity was 100% in the data set with Mus musculus [2] and “Dose-dependent-effect” in [11]. For the same molecule, the 50% effective dose (ED50) in the data set with Mus musculus [3] turned out to be 18.3 mg/kg. The molecule also returned a TD50 at 0.5 h in [4] of over 267 mg/kg. For the same molecule, the selectivity ratio in data set [5] was over 14.6. In data set [10], the concentration for a half-maximal effect (EC50) turned out to be 0.82 µM. The fold change (FC) in [6] came to 2.21. The same molecule registered a Cp in [8] of 1186.41 ng/mL. This molecule also had a Ct in data set [9] of 661.3 ng/mL.

Regarding `O=C1NC(=O)C(c2ccccc2)(c2ccccc2)N1` [PHENYTOIN], the ED50 in the data set with Mus musculus [3] was over 300 mg/kg.

On to `CCCC(CCC)C(=O)O` [VALPROIC ACID], for which the ED50 in the data set on Mus musculus [3] is 149 mg/kg.

`O=C1CC(c2ccccc2Cl)n2nc(-c3ccccc3F)nc2N1` (configuration not stated): the Activity entry in the data set on Mus musculus [1] was “Active; Moderate Protection”.

Take `CCCCN1C(=O)CC(c2ccccc2)n2nc(-c3ccc(OC)cc3)nc21` (configuration not stated): the Activity is 100% in the data set with Mus musculus [2] and “Dose-dependent-effect” in data set [11]. The ED50 in the data set with Mus musculus [3] came out at 17.1 mg/kg. The molecule also returned a TD50 at 0.5 h in [4] of over 267 mg/kg. Besides, in [5], the selectivity ratio is over 15.6. Also, the EC50 in data set [10] came out at 1.24 µM. Besides, the fold change (FC) in data set [6] was found to be 2.41. In [7], this molecule displayed an IC50 of 35 µM. Besides, the Cp in data set [8] came out at 1202.06 ng/mL. Also, in [9], the Ct amounted to 696.98 ng/mL.
